Values after ≈ are worked out from the molar mass of the structure shown. Where two headings read alike, the source gives them in different places.

As a reminder, the MIC is the least concentration at which growth counts as inhibited. For orientation: IC50 means the concentration that inhibits the measured activity by half.

The test system of data set [1] is Candida albicans BNCC186382. The experiment in a line: MIC by microdilution method, sensitive Candida albicans. In kind it is cell-based. The note with it: Candida albicans, read-out: MIC Candida albicans. An excerpt: (§1) Used bacteria: including drug-resistant bacteria and sensitive bacteria: the used sensitive strains include Cryptococcus neoformans BNCC225501, Candida albicans BNCC186382, Aspergillus fumigatus Fresenius BNCC338385, Escherichia coli BNCC336902, Staphylococcus aureus BNCC186335 and Pseudomonas aeruginosa Migula BNCC337940, and the used drug-resistant Candida albicans is clinically isolated azole multi-drug resistant Candida albicans (CA10) donated by Qianfoshan Hospital in Shandong Province. The strains are stored in normal saline containing 20% glycerol at −80° C. for a long time. Before operation, the strains are lined and transferred to a YPD solid plate, and subjected to static culture at 30° C. for 24 h; single colonies are selected and transferred to a YPD liquid medium, and cultured at 200 rpm at 30° C. overnight; and the overnight cultured bacterial solution is inoculated into a new YPD liquid medium at a ratio of about 1:100, and subjected to shaking culture at 200 rpm at 30° C. for 4 h so that Candida albicans is in a logarithmic phase.
(§2) Culture medium: the culture medium used by the microdilution method is RPMI-1640 culture medium (Gibco).
(§3) 1.2 Operation and results of detection of minimum inhibitory concentration (MIC) of the compounds and the azole drugs by the microdilution method: the MIC of the synthesized compound and the azole drug fluconazole for the standard strains is detected by the microdilution method according to fungal sensitivity detection method (M27-A3) established by the Clinical and Laboratory Standards Institute (CLSI). Specific steps are as follows: the prepared strain concentration is adjusted to 0.5-2.5×10^3 CFU/mL by using RPMI-1640 medium. 200 μL of bacterial solution containing the highest concentration of the drug to be detected is added into the first well of a 96-well plate, and 100 μL of blank bacterial solution without drug is added into each of the other wells; the bacterial solution is diluted to a series of concentration gradients by a double gradient dilution method; the well plate is subjected to static culture at constant temperature of 35° C. for 24 h; after the absorbance (OD) of each concentration gradient at 570 nm is detected by a microplate reader and the absorbance of a blank medium is subtracted, the growth rate=dosing hole value/control hole value ×100%, the inhibition rate=1−growth rate, and the minimum concentration with the inhibition rate greater than 80% is the minimum inhibitory concentration (MIC) value.
(In general: In broth dilution the organism is exposed to a series of concentrations in liquid medium.)

The subject of data set [2] is Cryptococcus neoformans BNCC225501. The experiment in a line: MIC by microdilution method, sensitive Cryptococcus neoformans. The note with it: Cryptococcus neoformans, read-out: MIC Cryptococcus neoformans. In kind it is cell-based.
Source text: as §1, §2, §3

Data set [3] deals with Aspergillus fumigatus Fresenius BNCC338385. The experiment in a line: MIC by microdilution method, sensitive Aspergillus fumigatus Fresenius. In kind it is cell-based. The conditions noted are these: Aspergillus fumigatus, 24 h, read-out: MIC Aspergillus fumigatus Fresenius.
Source text: as §1, §2, §3

In data set [4] the test system is Drug-resistant Candida albicans CA10. The experiment in a line: MIC by microdilution method, drug-resistant Candida albicans CA10. In kind it is cell-based. The conditions noted are these: clinically isolated azole multi-drug resistant strain CA10; 24 h.
Source text: as §1, §2, §3

A further data set concerns Candida albicans CA10. The experiment in a line: Checkerboard microdilution assay of compound combined with fluconazole, FICI model. The format is cell-based. The conditions noted are these: for MIC: Candida albicans; for MIC of compound combined: compound concentration in combination with fluconazole; for MIC of compound combined / MIC of azole (fluconazole) combined: inhibition rate about 80%; for FICI: compound plus fluconazole; for MIC of azole (fluconazole) combined: fluconazole concentration in combination with the compound. How it is done: The concentration of Candida albicans CA10 is adjusted to 0.5-2.5×10^3 CFU/mL by using RPMI-1640 medium, and the diluted bacterial solution is used for preparing a working solution of the compound and the azole drug with double concentration gradient. 50 μl of working solution of double concentration of azole drugs and working solution of double concentration of the compound to be detected at each concentration gradient are added in the longitudinal (A-H) direction and transverse (1-12) direction of the 96-well plate respectively, so that the final drug concentration range of fluconazole is 4-64 μg/ml, and the drug concentration range of the compound is 256-16 μg/ml. The 96-well plate is cultured in a constant temperature incubator at 35° C. for 24 h. The amount of viable bacteria is detected with an XTT cell proliferation assay kit, and the absorbance of each well at 490 nm wavelength is detected by the microplate reader. Growth rate=dosing well value/control well value×100%, and inhibition rate=1−growth rate. The MIC when the inhibition rate is about 80% is a break point of the combination of two drugs.
The combination data of the compound and the azole drug collected by the checkerboard microdilution assay are analyzed by an FICI (fractional inhibitory concentration index) model, and the interaction effects are evaluated.
The FICI model can be expressed by the following formula: […]
Wherein: MICA and MICB are MIC values of drug A and drug B used separately, while MICAB and MICBA are the concentrations of drug A and drug B corresponding to the minimum effective dose of the combination of drug A and drug B.

In data set [5] the test system is Staphylococcus aureus BNCC186335. The experiment in a line: MIC by microdilution method, sensitive Staphylococcus aureus. The format is cell-based. The conditions noted are these: read-out: MIC Staphylococcus aureus.
Source text: as §1, §2, §3

Data set [6] relates to Escherichia coli BNCC336902. The experiment in a line: MIC by microdilution method, sensitive Escherichia coli. The conditions noted are these: read-out: MIC Escherichia coli. The format is cell-based.
Source text: as §1, §2, §3

Data set [7] relates to Pseudomonas aeruginosa Migula BNCC337940. The experiment in a line: MIC by microdilution method, sensitive Pseudomonas aeruginosa Migula. The format is cell-based. The note with it: 24 h, read-out: MIC Pseudomonas aeruginosa Migula.
Source text: as §1, §2, §3

For data set [8], the system named is RAW 264.7 murine macrophage cells. The experiment in a line: MTT cytotoxicity test on RAW 264.7. In kind it is cell-based, mouse. The conditions noted are these: for IC50: Mus musculus, RAW264.7, 24 h, read-out: IC50 RAW 264.7 cell viability. How it is done:
3.1.1 Cell line: RAW 264.7 murine macrophage cells are donated by Shihezi University College of Pharmacy, and cultured in a 37° C. constant temperature incubator with high glucose DMEM medium (Gibco), 10% FBS serum (Gibco) and 5% CO2, and subculturing and related experimental operation are conducted when cell fusion degree reaches about 70-80%.
3.1.2 Materials and reagents: fetal bovine serum (American BI company), DMEM high glucose medium (American Gibco company), penicillin-streptomycin solution (Shanghai Solarbio company), PBS buffer solution (American Gibco company), isopropyl alcohol (analytically pure), dimethyl sulfoxide (DMSO) (Shanghai Solarbio company), and MTT powder (Shanghai Solarbio company).
Logarithmic RAW 264.7 cells are taken; cell suspension is prepared with a complete medium; the concentration of the cell suspension is adjusted to about 5×10^4 cells/mL; 200 μl of cell suspension is added into each hole of the 96-well culture plate and cultured in 5% CO2 in an incubator at 37° C. for about 24 h until the cells grow to the cell wall (at density of 50%); the medium is absorbed by a 5 ml needle tube or negative pressure; RAW 264.7 is divided into a blank group, a solvent control group and a drug administration group; in the blank group, there is no cell, and a medium, MTT and DMSO are added; in the solvent control group, cells, the same concentration of drug dissolving media, culture solution, MTT and DMSO are added; in the drug administration group, medical solution for diluting the concentration gradient with serum-free medium (containing 1% PE) is added; each concentration shall set at least 3 complex wells; 100 μl of medical solution is added into each well; and the culture plate is continued to be incubated in the incubator for 24 h. […] 100 μl of DMSO is added into each well to dissolve formazan crystals, and shaken in a shaker for 10 min at low speed to fully dissolve the crystals. The absorbance (OD) value of each well at 490 nm is determined by the microplate reader, and the cell viability is calculated by the formula: Cell viability (%)=(OD drug administration group−OD blank group)/(OD solvent control group−OD blank group)× 100%.
OD values at 490 nm are determined by the experimental method in each group, and the data are subjected to one-way analysis of variance by Graphpad prism 8.0 software.
(In general: Formazan colour is commonly taken as a measure of viable cells.)

[9] abbreviates: BNCC186382, sensitive strain, 35° C., 24 h, minimum concentration with inhibition rate greater than 80%.
[10] abbreviates: BNCC225501, sensitive strain, 35° C., 24 h, minimum concentration with inhibition rate greater than 80%.
The mark [11] stands for this setting: sensitive strain, 35° C., minimum concentration with inhibition rate greater than 80%.
Where [12] appears, read: BNCC186335, sensitive strain, 35° C., 24 h, minimum concentration with inhibition rate greater than 80%.
Setting [13] is: BNCC336902, sensitive strain, 35° C., 24 h, minimum concentration with inhibition rate greater than 80%.
The mark [14] stands for this setting: CA10, compound alone, read-out: MIC of compound used separately.

With `OC(Cn1cncn1)(Cn1cncn1)c1ccc(F)cc1F` [Fluconazole, fluconazole, reference compound], the MIC in data set [1] (setting [9]) is 2 µg/mL (≈ 6.53 µM); in data set [2] (setting [10]), 2 µg/mL (≈ 6.53 µM); in data set [3] (setting [11]), 2 µg/mL (≈ 6.53 µM); in the data set on Candida albicans CA10 (CA10, fluconazole alone, read-out: MIC of azole (fluconazole) used separately) it was above 128 µg/mL. Besides, in data set [4], the MIC80 Drug-resistant Candida albicans CA10 is above 128 µg/mL.
Regarding `Fc1ccc2cc(-c3ccccc3)[nH]c2c1` [Compound 5], the MIC in [1] (setting [9]) turned out to be 16 µg/mL (≈ 75.7 µM); in data set [2] (setting [10]) it was 256 µg/mL (≈ 1210 µM); in [3] (setting [11]), 16 µg/mL (≈ 75.7 µM); in data set [5] (setting [12]) it was 32 µg/mL (≈ 151 µM); in [6] (setting [13]), 16 µg/mL (≈ 75.7 µM); in data set [7] (setting [11]) it was 256 µg/mL (≈ 1210 µM). Besides, in the data set with Candida albicans CA10 (setting [14]), the MIC was above 256 µg/mL. The MIC80 Drug-resistant Candida albicans CA10 in data set [4] was found to be 256 µg/mL (≈ 1210 µM). Further, the “MIC of compound combined” value in the data set with Candida albicans CA10 (CA10) is 64 µg/mL. Besides, in the data set with Candida albicans CA10 (CA10), the FICI is on record as 0.313. Moreover, the “MIC of azole (fluconazole) combined” value in the data set on Candida albicans CA10 (CA10) came out at 8 µg/mL. Also, in data set [8] (24 h), the “toxicity to RAW 264.7 cells” value was “no obvious toxicity”. For the same compound, the “cell proliferation of RAW 264.7” value in data set [8] (24 h, different concentrations) was “may inhibit cell proliferation in a concentration-dependent way”. For the same compound, the IC50 in data set [8] came to 12.5 µM.
For `Clc1ccc2cc(-c3ccccc3)[nH]c2c1` [Compound 4], the MIC in data set [1] (setting [9]) was 16 µg/mL (≈ 70.3 µM); in data set [2] (setting [10]) it was 16 µg/mL (≈ 70.3 µM); in data set [3] (setting [11]) it was 8 µg/mL (≈ 35.1 µM); in [5] (setting [12]) it was 8 µg/mL (≈ 35.1 µM); in data set [6] (setting [13]) it was 16 µg/mL (≈ 70.3 µM); in data set [7] (setting [11]), 16 µg/mL (≈ 70.3 µM). Besides, the MIC in the data set on Candida albicans CA10 (setting [14]) amounted to 32 µg/mL. In [4], this compound yielded an MIC80 Drug-resistant Candida albicans CA10 of 32 µg/mL (≈ 141 µM). In addition, the “MIC of compound combined” value in the data set with Candida albicans CA10 (CA10) was found to be 16 µg/mL. For the same compound, the FICI in the data set with Candida albicans CA10 (CA10) turned out to be 0.563. Also, the “MIC of azole (fluconazole) combined” value with Candida albicans CA10 (CA10) was determined as 8 µg/mL. In addition, the “sensitivity of clinical multi-drug resistant strain CA10 to the azole drug” value in the data set with Candida albicans CA10 (combination with fluconazole) is listed as “can improve the sensitivity”. Moreover, in data set [8] (24 h), the “toxicity to RAW 264.7 cells” value is listed as “no obvious toxicity”. For the same compound, in data set [8], the IC50 worked out at 100 µM.
For `Cc1ccccc1-c1cc2ccccc2[nH]1` [Compound 2], the MIC in data set [1] (BNCC186382, 24 h) stood at 4 µg/mL (≈ 19.3 µM); in data set [2] (BNCC225501, 24 h) it was 2 µg/mL (≈ 9.65 µM); in [3] it was 16 µg/mL (≈ 77.2 µM); in data set [5] (BNCC186335, 24 h), 8 µg/mL (≈ 38.6 µM); in data set [6] (BNCC336902, 24 h), 8 µg/mL (≈ 38.6 µM); in [7], 256 µg/mL (≈ 1240 µM). Also, the MIC with Candida albicans CA10 (CA10, read-out: MIC of compound used separately) is 32 µg/mL. In data set [4], this compound showed an MIC80 Drug-resistant Candida albicans CA10 of 32 µg/mL (≈ 154 µM). Further, the “MIC of compound combined” value with Candida albicans CA10 (CA10) worked out at 8 µg/mL. Further, the FICI in the data set on Candida albicans CA10 (CA10) was 0.313. Also, the “MIC of azole (fluconazole) combined” value in the data set on Candida albicans CA10 (CA10) turned out to be 8 µg/mL. In addition, the IC50 in data set [8] was 50 µM.

The record behind these values is patent publication US20250154099A1, “PREPARATION METHOD OF 2-PHENYLINDOLE DERIVATIVES AND APPLICATION THEREOF” (Shihezi University, priority 2022, published 2025).
